The values below come from US20220242850A1, “PHTHALAZIN-1-ONE DERIVATIVES USEFUL AS GRK2 INHIBITORS” (Janssen Pharmaceutica NV, priority 2019, published 2022).

The target in this assay is T1, GRK2 (Homo sapiens, UniProt P25098).
T1 sequence (P25098 1-689): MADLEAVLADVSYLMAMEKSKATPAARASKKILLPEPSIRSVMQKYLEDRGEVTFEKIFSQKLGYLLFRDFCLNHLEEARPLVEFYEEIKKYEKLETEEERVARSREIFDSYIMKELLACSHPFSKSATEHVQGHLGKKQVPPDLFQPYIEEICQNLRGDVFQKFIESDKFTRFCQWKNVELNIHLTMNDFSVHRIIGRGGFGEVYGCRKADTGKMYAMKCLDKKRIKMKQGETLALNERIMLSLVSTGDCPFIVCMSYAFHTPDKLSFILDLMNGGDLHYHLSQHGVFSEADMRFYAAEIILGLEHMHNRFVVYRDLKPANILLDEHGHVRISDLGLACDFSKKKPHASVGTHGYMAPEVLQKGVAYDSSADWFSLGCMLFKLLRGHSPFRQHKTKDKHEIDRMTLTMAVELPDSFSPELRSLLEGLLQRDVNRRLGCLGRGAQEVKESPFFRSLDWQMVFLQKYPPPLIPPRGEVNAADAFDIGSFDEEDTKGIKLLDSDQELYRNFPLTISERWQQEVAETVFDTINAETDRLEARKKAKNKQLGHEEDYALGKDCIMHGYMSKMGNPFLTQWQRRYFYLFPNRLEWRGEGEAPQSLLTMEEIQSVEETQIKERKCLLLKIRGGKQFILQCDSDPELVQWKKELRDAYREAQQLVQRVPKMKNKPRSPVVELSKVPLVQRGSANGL
Kind of assay: hGRK2 LANCE Ultra In Vitro Assay. The following applies: hGRK2 LANCE Ultra Assay IC50, 10 nM GRK2; ATP 30 or 600 μM (not stated which). The assay is classed as biochemical. The procedure: G-protein coupled receptor kinases (GR Kinases) desensitize activated G-protein coupled receptors (GPCRs), by phosphorylation of cytoplasmic loops or carboxyl-terminal tails of GPCRs. GRK2 is one of the 6 different GR kinases and is implicated in heart failure and diabetes.
This assay is sensitive and requires as low as 10 nM enzyme, in a total volume of 10 μL. In addition, the ATP concentration can be varied over a broad range, without interfering with the assay or changing the assay condition. […] Testing inhibitors routinely at both high and low ATP concentrations also enables identification of potential non-ATP competitive inhibitors.
Paroxetine was used as the reference compound in this assay.
Test compounds were dissolved in DMSO at 1 mM and were 3-fold serial diluted. The compound DMSO solutions were then added (100 nL) into a plate well using an acoustic dispenser. To each well was then added 20 nM GRK2 (5 μL) in assay buffer (20 mM HEPES, pH 7.5, 10 mM MgCl2, 0.001% Tween-20®). The plate was sealed and centrifuged at 1000 rpm for 1 min. The plate and wells containing a mixture of GRK2 and test compound were incubated at ambient temperature for 30 min (prior to initializing the enzymatic reaction).
Enzyme reactions were initiated by the addition of 4.9 μL Substrates/Eu-Ab mix to each well. […] Final concentrations of reagents in the assays were as follows: 20 mM HEPES, pH 7.5; 10 mM MgCl2; 0.001% Tween-2® (w/v), 30 or 600 μM ATP; 200 nM ULight-peptide; 4 nM Eu-Ab; 10 nM GRK2; and 1% DMSO.
The plates were sealed and centrifuged at 1000 rpm for 1 min. For reactions at low ATP concentration (30 μM), reaction mixtures were incubated at ambient temperature for 120 min. For reactions at high ATP concentration (600 μM), reaction mixtures were incubated at ambient temperature for 60 min.
The enzyme reactions were quenched by addition of 10 μL of 12 mM EDTA in 1× LANCE detection solution to each well. The plates were then incubated at ambient temperature for 30 min.
The raw HTRF data were converted to % active as follows:
% active=(sample−NC)/(PC−NC)*100
where NC is the mean of negative control (reactions without GRK2), and PC is the mean of positive control (reactions with GRK2 but without inhibitor). IC50 values were determined from a 4-parameter fit, using the following equation:
Y=Bottom+(Top−Bottom)/(1+10^(Log IC50-X)*Hill slope)),
where X=log10 of the compound concentration.
In turn, `O=C(COc1cccc(Cn2ncc3ccc(-c4cn[nH]c4)cc3c2=O)c1)N1CCOCC1` [Compound 6, 2-[[3-(2-Morpholino-2-oxo-ethoxy)phenyl]methyl]-7-(1H-pyrazol-4-yl)phthalazin-1-one] registered an IC50 of 8 nM.

For the molecule `COc1cccc(C(CO)n2ncc3ccc(-c4cn[nH]c4)cc3c2=O)c1` (centres unmarked) [Compound 15, 2-[2-Hydroxy-1-(3-methoxyphenyl)ethyl]-7-(1H-pyrazol-4-yl)phthalazin-1-one], the midpoint of inhibition, the IC50, lay at 33 nM.

In the case of `COc1cccc(C(C(=O)O)n2ncc3ccc(-c4cn[nH]c4)cc3c2=O)c1` (centres unmarked) [Compound 18, 2-(3-Methoxyphenyl)-2-[1-oxo-7-(1H-pyrazol-4-yl)phthalazin-2-yl]acetic acid], the IC50 was greater than 20000 nM. For the molecule `COc1cccc(Cl)c1CNC(=O)c1cccc(Cn2ncc3ccc(-c4cn[nH]c4)cc3c2=O)c1` [Compound 1, N-[(2-Chloro-6-methoxy-phenyl)methyl]-3-[[1-oxo-7-(1H-pyrazol-4-yl)phthalazin-2-yl]methyl]benzamide], the IC50 was less than 5 nM. Take `O=C(NC1CC2CCC1C2)c1cccc(Cn2ncc3ccc(-c4cn[nH]c4)cc3c2=O)c1` (centres unmarked) [Compound 3, N-Norbornan-2-yl-3-[[1-oxo-7-(1H-pyrazol-4-yl)phthalazin-2-yl]methyl]benzamide]: inhibition was half-maximal at 5 nM (IC50).

Regarding `COc1cccc(Cn2ncc3ccc(-c4cn[nH]c4)c(F)c3c2=O)c1` [Compound 9, 8-Fluoro-2-[(3-methoxyphenyl)methyl]-7-(1H-pyrazol-4-yl)phthalazin-1-one], the midpoint of inhibition, the IC50, lay at 11 nM. The molecule `COc1cccc(C(C)n2ncc3ccc(-c4cn[nH]c4)cc3c2=O)c1` (single isomer, unassigned) [Compound 16, 2-[1-(3-Methoxyphenyl)ethyl]-7-(1H-pyrazol4-yl)phthalazin-1-one] gave an IC50 of 89 nM. To `C#CCCNC(=O)c1cccc(Cn2ncc3ccc(-c4cn[nH]c4)cc3c2=O)c1` [Compound 4, N-But-3-ynyl-3-[[1-oxo-7-(1H-pyrazol-4-yl)phthalazin-2-yl]methyl]benzamide] belongs 5.5 nM.

For `COc1cccc(Cn2ncc3ccc(-c4cn[nH]c4)c(C#N)c3c2=O)c1` [Compound 10, 3-[(3-Methoxyphenyl)methyl]-4-oxo-6-(1H-pyrazol-4-yl)phthalazine-5-carbonitrile], the IC50 came to 11 nM. For the molecule `CC(C)NC(=O)c1cc(Cn2ncc3ccc(-c4cn[nH]c4)cc3c2=O)ccc1F` [Compound 11, 2-Fluoro-N-isopropyl-5-[[1-oxo-7-(1H-pyrazol-4-yl)phthalazin-2-yl]methyl]benzamide], the IC50 is 12 nM. With `COc1cccc(C(C)n2ncc3ccc(-c4cn[nH]c4)cc3c2=O)c1` (single isomer, unassigned) [Compound 17, 2-[1-(3-Methoxyphenyl)ethyl]-7-(1H-pyrazol-4-yl)phthalazin-1-one], it took 1700 nM to reach half-maximal inhibition (IC50).
